Data on 1 molecule can be found in US10987339B2, “Uses of butylidenephthalide” (EVERFRONT BIOTECH INC., priority 2015, dated 2021).

For series [1], the system named is NHOKs (normal human oral keratinocytes). The experiment in a line: MTT assay, viability of NHOKs. Type of series: cell-based. The settings on record: 24 hours. As to the method:
(§1) To investigate the effect of BP on inhibiting the growth of cancer stem cells, NHOKs (normal human oral keratinocytes) and HNC-TIC (head and neck cancer-derived tumor initiating cell)-like oral stem cells (i.e., ALDH1^+CD44^+-1 cell line or ALDH1^+CD44^+-2 cell line) were treated with different concentrations (0, 25, 50 and 100 μg/ml) of BP for 24 hours, and then, an MTT assay was utilized to analyzed the viabilities of NHOKs and HNC-TIC-like oral stem cells (i.e., ALDH1^+CD44^+-1 cell line and ALDH1^+CD44^+-2 cell line).
On the technique in general: Tetrazolium dyes change colour on reduction, which living cells bring about.

In series [2] the test system is HNC-TIC-like oral stem cells (ALDH1+CD44+-1 cell line and ALDH1+CD44+-2 cell line). Nature of the series: MTT assay, viability of HNC-TIC-like oral stem cells. In kind it is cell-based. The settings on record: ALDH1+CD44+-1 and ALDH1+CD44+-2 cell lines, 0, 25, 50 and 100 μg/ml BP, 24 hours, FIG. 1. On the procedure: as §1
For series [3], the system named is Sox-2. Nature of the series: Western blotting, Sox-2 expression in MiaPaCa-2 cells. The settings on record: MiaPaCa-2 cells, 0, 12.5, 25 and 50 μg/ml BP, 24 hours, FIG. 2. Type of series: cell-based. On the procedure: (§2) It has been known that CD44, CD133, Sox-2 (sex-determining region Y protein (SRY)-related high-mobility group box 2) and Oct4 (octamerbinding transcription factor 4) proteins all are stemness-maintenance markers of cancer stem cells and participate in the regulation of the self-renewal and differentiation of cancer stem cells. MiaPaCa-2 cell line (i.e., a cell line of pancreatic cancer cells) was treated with different concentrations (0, 12.5, 25, and 50 μg/ml) of BP for 24 hours, and then, proteins were extracted from the cells to conduct Western blotting to determine the expressions of Sox-2, CD133 and CD44 proteins in the BP-treated MiaPaCa-2 cells. Yet another. HNC-TIC-like oral stem cells (i.e., ALDH1^+CD44^+-1 cell line or ALDH1^+CD44^+-2 cell line) were treated with different concentrations (0, 12.5, 25, and 50 μg/ml) of BP for 24 hours, and then, proteins were extracted from the cells to conduct Western blotting to determine the expressions of Sox-2 and Oct4 proteins in the BP-treated HNC-TIC-like oral stem cells (i.e., ALDH1^+CD44^+-1 cell line and ALDH1^+CD44^+-2 cell line).

For series [4], the system named is CD133. The experiment in a line: Western blotting, CD133 expression in MiaPaCa-2 cells. In kind it is cell-based. The settings on record: MiaPaCa-2 cells, 0, 12.5, 25 and 50 μg/ml BP, 24 hours, FIG. 2. As to the method: as §2
In series [5] the test system is CD44. Nature of the series: Western blotting, CD44 expression in MiaPaCa-2 cells. In kind it is cell-based. The settings on record: MiaPaCa-2 cells, 0, 12.5, 25 and 50 μg/ml BP, 24 hours, FIG. 2. As to the method: as §2
For orientation: A western blot detects proteins with antibodies after separation by electrophoresis.

Series [6] relates to Sox-2. Nature of the series: Western blotting, Sox-2 expression in HNC-TIC-like oral stem cells. In kind it is cell-based. The settings on record: ALDH1+CD44+-1 and ALDH1+CD44+-2 cell lines, 0, 12.5, 25 and 50 μg/ml BP, 24 hours, FIG. 3. On the procedure: as §2
The subject of series [7] is Oct4. Nature of the series: Western blotting, Oct4 expression in HNC-TIC-like oral stem cells. In kind it is cell-based. As to conditions: ALDH1+CD44+-1 and ALDH1+CD44+-2 cell lines, 0, 12.5, 25 and 50 μg/ml BP, 24 hours, FIG. 3. On the procedure: as §2
Series [8] has as its system ALDH. Nature of the series: ALDEFLUOR flow cytometry analysis of ALDH activity. Type of series: cell-based. The settings on record: group without DEAB addition, 0, 25 and 50 μg/ml BP, 24 hours, FIG. 4. On the procedure: ALDH protein is also an important stemness-maintenance marker of cancer stem cells and participates in the regulation of the self-renewal and differentiation of cancer stem cells. HNC-TIC-like oral stem cells (i.e., ALDH1^+CD44^+-1 cell line or ALDH1^+CD44^+-2 cell line) were treated with different concentrations (0, 25 and 50 μg/ml) of BP for 24 hours, and then, 1×10^5 cells obtained from each group were separately suspended in 50 μl of a stem cell detection kit (i.e., ALDEEFLUOR array kit, purchased from […] Technologies Inc., Vancouver, Canada) buffer and the cell suspension of each group was separately added with ALDEFLUOR to a final concentration of 1 μM. Thereafter, a sample of each group was stained by […] and then analyzed by flow cytometry analysis to determine the ALDH activity of HNC-TIC-like oral stem cells (i.e., ALDH1^+CD44^+-1 cell line and ALDH1^+CD44^+-2 cell line).
The above experimental procedure was repeated, but the cell suspension of each group was further added with N,N-diethylaminobenzaldehyde (DEAB, i.e., an inhibitor of ALDH) to a final concentration of 150 μM of DEAB separately.

In series [9] the test system is HNC-TIC-like oral stem cells (ALDH1+CD44+-1 cell line or ALDH1+CD44+-2 cell line). The experiment in a line: Transwell invasion assay. Type of series: cell-based. The text has this:
In this research, the effect of BP on inhibiting the migration and invasion of cancer stem cells was investigated by a transwell invasion assay system (i.e., Transwell® system, purchased from Corning, UK) with a polycarbonate filter membrane of 8-μm pore size (purchased from Corning, UK). First, the polycarbonate filter membrane was coated with Matrigel™ (purchased from BD Pharmingen, USA), and then, the coated membrane was placed in the […] of the transwell invasion assay system. Then, the lower chamber was filled with 10% serum-containing medium. On the other hand, HNC-TIC-like oral stem cells (i.e., ALDH1^+CD44^+-1 cell line or ALDH1^+CD44^+-2 cell line) were treated with different concentrations (0, 25 and 50 μg/ml) of BP for 24 hours, and then, the treated cells of each group was cultured in the upper chamber which was filled with serum-free medium, at a cell density of […] cells/100 μl for 24 hours. […] The invasion cancer cells of each group were counted and photographed over five visual fields of the membrane with the use of a 100-fold magnification under a microscope. The relative invasion ability of cells of each experimental group was calculated based on the result of the group treated with 0 μg/ml of BP.

Series [10] shares this test system. Nature of the series: Soft agar colony formation assay. Type of series: cell-based. On the procedure:
In this research, a soft agar colony formation assay was used to investigate the effect of BP on inhibiting the tumor initiating activity of cancer stem cells. First, HNC-TIC-like oral stem cells (i.e., ALDH1^+CD44^+-1 cell line or ALDH1^+CD44^+-2 cell line) were treated with different concentrations (0, 25 and 50 μg/ml) of BP for 24 hours, and then, the treated cells of each group was separately seeded in the top agar [containing DMEM (Dulbecco's Modified Eagle's Medium medium), 10% (v/v) Fetal Calf Serum (FCS) and 0.3% (w/v) agar] (purchased from Sigma-Aldrich) at an initial cell number of 2×10^4. On the other hand, a six-well culture dish was coated with the bottom agar [containing DMEM, 10% (v/v) FCS and 0.6% (w/v) agar](purchased from Sigma-Aldrich), 2 ml for each well. After the bottom agar was solidified, each group of the top agar (containing oral cancer stem cells) was respectively added onto the bottom agar in different wells of the dish, 2 ml for each well. […] Lastly, the bottom agar was stained with 0.005% crystal violet, the number of colonies (with a diameter ≥100 μm) was counted over five fields per well with the use of a microscope, and those fields were photographed. The relative colony-forming ability of cells of each experimental group was calculated based on the result of the group treated with 0 μg/ml of BP.

In series [11] the test system is HNC-TIC-like oral stem cells stably transfected with GFP-tagged constructs. Nature of the series: Tumor initiating activity animal experiment (subcutaneous GFP-tagged HNC-TIC-like oral stem cells). In kind it is in vivo, BALB/c nu/nu mice. As to the method:
In this research, the effect of BP on inhibiting the tumor initiating activity of cancer stem cells was further investigated by animal experiments. First, 5-6 weeks old BALB/c nu/nu mice (weight 18-22 g) were bred under the same condition for 4 weeks. Then, HNC-TIC-like oral stem cells stably transfected with GFP-tagged constructs were injected (1×10^4 cells/0.1 mL/mouse) subcutaneously into the axilla of mice. After tumors reached 100 mm^3, mice were grouped into one control group and two experimental groups (three groups in total, n=3 per group). Then, one experimental group was injected daily with 100 mg/kg of BP for 6 days and another experimental group was injected daily with 200 mg/kg of BP for 6 days. The control group was injected daily with a vehicle (without BP) for 6 days. Ten days after the injection of BP or vehicle, the length and width were measured every 2 days (22 days in total), and then, the average tumor volume was calculated according to the following Formula 1. At the same time, the GFP signal (i.e., green fluorescence) of each group was detected and photographed by the IVIS Imaging system. The GFP intensity of each group was analyzed by Image-Pro Plus software. [length×width^2]/2 (unit: mm^3) Formula 1: […]

For the molecule `CCCC=C1OC(=O)c2ccccc21` [BP, butylidenephthalide], the “viability of NHOKs” value in [1] (0, 25, 50 and 100 μg/ml BP, MTT, FIG. 1) was “did not decrease along with the increment in the concentration of BP”. For the same molecule, the “cytotoxicity to normal cells” value in series [1] (NHOKs, up to 100 μg/ml BP) is “no cytotoxicity to normal cells”. In series [2], the “viability of HNC-TIC-like oral stem cells” value is “decreased along with the increment in the concentration of BP”. In addition, the “expression of Sox-2 protein” value in [3] and in series [6] was “significantly decreased along with the increment in the concentration of BP” in each case. Moreover, in [4], the “expression of CD133 protein” value is recorded as “significantly decreased along with the increment in the concentration of BP”. In series [5], the “expression of CD44 protein” value is “significantly decreased along with the increment in the concentration of BP”. The “expression of Oct4 protein” value in series [7] is “significantly decreased along with the increment in the concentration of BP”. Moreover, the “number of live cells with ALDH activity” value in series [8] is recorded as “increased along with the increment in the concentration of BP”. Besides, in series [9] (0, 25 and 50 μg/ml BP for 24 hours, then 24 hours transwell, FIG. 5A), the “number of cells on the polycarbonate filter membrane” value was “significantly reduced along with the increment in the concentration of BP”. Besides, in [9] (0, 25 and 50 μg/ml BP, relative to 0 μg/ml group, FIG. 5B), the relative invasion ability result was “decreased along with the increment in the concentration of BP”. In series [10] (0, 25 and 50 μg/ml BP for 24 hours, 4 weeks culture, FIG. 6A), the “number of colonies in the bottom agar” value is recorded as “significantly decreased along with the increment in the concentration of BP”. In addition, in [10] (0, 25 and 50 μg/ml BP, relative to 0 μg/ml group, FIG. 6B), the relative colony-forming ability entry is given as “decreased along with the increment in the concentration of BP”. Besides, the tumor volume result in series [11] (100 mg/kg and 200 mg/kg BP groups, daily for 6 days, compared to control group, FIG. 7B) is “decreased over a period of time”. Also, the GFP intensity result in series [11] (100 mg/kg and 200 mg/kg BP groups, daily for 6 days, compared to control group, FIG. 7C, 7D) is on record as “significantly decreased”. Also, in series [11] (100 mg/kg or 200 mg/kg BP injected daily for 6 days, FIG. 7A), the “body weight of mice” value is “didn't change significantly”.
